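Five compound concentrations were applied to cells in 96-well plates for 48 hours; endpoints were derived by simple linear interpolation of the resulting dose-response curve. GI50: concentration for 50% inhibition of growth. TGI is the concentration that stops growth completely.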
Tests used:
Assay in all cases: NCI-60 cell line screen, 48 h
[1] = tested on: M14 melanoma
[2] = tested on: SK-MEL-28 melanoma
[3] = tested on: MCF7 breast
[4] = tested on: EKVX NSCLC
[5] = tested on: SK-OV-3 ovarian
[6] = tested on: OVCAR-5 ovarian
[7] = tested on: UACC-62 melanoma
[8] = tested on: TK-10 renal
[9] = tested on: COLO 205 colon
[10] = tested on: SK-MEL-5 melanoma
[11] = tested on: SNB-19 CNS
[12] = tested on: CAKI-1 renal
[13] = tested on: OVCAR-3 ovarian
[14] = tested on: A549 NSCLC
[15] = tested on: NCI-H460 lung
[16] = tested on: HOP-62 NSCLC
[17] = tested on: NCI-H522 lung
[18] = tested on: NCI/ADR-RES ovarian
[19] = tested on: HL-60(TB) leukemia
[20] = tested on: U251 CNS
[21] = tested on: MDA-MB-435
[22] = tested on: SF-539 CNS
[23] = tested on: CCRF-CEM leukemia
[24] = tested on: HOP-92 NSCLC
[25] = tested on: BT-549 breast
[26] = tested on: UACC-257 melanoma
[27] = tested on: SW-620 colon
[28] = tested on: NCI-H23 lung
[29] = tested on: SF-268 CNS
[30] = tested on: HCC-2998 colon
[31] = tested on: PC-3 prostate
[32] = tested on: OVCAR-8 ovarian
[33] = tested on: NCI-H226 lung
[34] = tested on: 786-0 renal
[35] = tested on: K-562 leukemia
[36] = tested on: ACHN renal
[37] = tested on: UO-31 renal
[38] = tested on: MALME-3M melanoma
[39] = tested on: MDA-MB-231 breast
[40] = tested on: IGROV1 ovarian
[41] = tested on: SR leukemia
[42] = tested on: MOLT-4 leukemia
[43] = tested on: RPMI-8226 leukemia
[44] = tested on: HS 578T breast
[45] = tested on: SF-295 CNS
[46] = tested on: SK-MEL-2 melanoma
[47] = tested on: SNB-75 CNS
[48] = tested on: HT29 colon
[49] = tested on: OVCAR-4 ovarian
[50] = tested on: HCT-116 colon
[51] = tested on: RXF 393 renal
[52] = tested on: KM12 colon
[53] = tested on: HCT-15 colon
[54] = tested on: LOX IMVI melanoma
[55] = tested on: SN12C renal
[56] = tested on: A498 renal
[57] = tested on: DU-145 prostate

O=S(=O)(O)c1cc(N=Nc2c(O)ccc3ccccc23)c2c(S(=O)(=O)O)cccc2c1 showed a TGI [1] of over 100 µM, a TGI [2] of over 100 µM and a TGI [3] of over 100 µM. It also gave a TGI [4] of over 100 µM, a TGI [5] of over 100 µM and a TGI [6] of over 100 µM. It also gave a TGI [7] of over 100 µM, a TGI [8] of over 100 µM and a TGI [9] of over 100 µM. The TGI [10] was over 100 µM, the TGI [11] was over 100 µM and the TGI [12] was over 100 µM. For the same compound, the TGI [13] was over 100 µM, the TGI [14] was over 100 µM and the TGI [15] was over 100 µM. For the same compound, the TGI [16] was over 100 µM, the TGI [17] was over 100 µM and the TGI [18] was over 100 µM. For the same compound, the TGI [19] was over 100 µM, the TGI [20] was over 100 µM and the TGI [21] was over 100 µM. For the same compound, the TGI [22] was over 100 µM, the TGI [23] was over 100 µM and the TGI [24] was over 100 µM. For the same compound, the TGI [25] was over 100 µM, the TGI [26] was over 100 µM and the TGI [27] was over 100 µM. The TGI [28] was over 100 µM, the TGI [29] was over 100 µM and the TGI [30] was over 100 µM. The TGI [31] was over 100 µM, the TGI [32] was over 100 µM and the TGI [33] was over 100 µM. It also gave a TGI [34] of over 100 µM, a TGI [35] of over 100 µM and a TGI [36] of over 100 µM. For the same compound, the TGI [37] was over 100 µM, the TGI [38] was over 100 µM and the TGI [39] was over 100 µM. The TGI [40] was over 100 µM, the TGI [41] was over 100 µM and the TGI [42] was over 100 µM. It also gave a TGI [43] of over 100 µM, a TGI [44] of over 100 µM and a TGI [45] of over 100 µM. The TGI [46] was over 100 µM, the TGI [47] was over 100 µM and the TGI [48] was over 100 µM. The TGI [49] was over 100 µM, the TGI [50] was over 100 µM and the TGI [51] was over 100 µM. It also gave a TGI [52] of over 100 µM and a TGI [53] of over 100 µM.

CCCN1C(=O)/C(=C/c2cccc(O)c2)SC1=Nc1ccccc1 showed a GI50 [1] of 29 µM, a TGI [1] of 67.8 µM and a GI50 [2] of 21.1 µM. It also gave a TGI [2] of 42.5 µM, a GI50 [3] of 24.4 µM and a TGI [3] of over 100 µM. For the same compound, the GI50 [4] was 19.2 µM, the TGI [4] was 33.9 µM and the GI50 [6] was 16.8 µM. It also gave a TGI [6] of 31 µM, a GI50 [7] of 16.4 µM and a TGI [7] of 29.9 µM. It also gave a GI50 [8] of 6.7 µM, a TGI [8] of 24 µM and a GI50 [9] of 18.4 µM. The TGI [9] was 41.5 µM, the GI50 [10] was 19.6 µM and the TGI [10] was 35.2 µM. It also gave a GI50 [54] of 11.8 µM, a TGI [54] of 25.5 µM and a GI50 [11] of 18 µM. The TGI [11] was 34.5 µM, the GI50 [12] was 22 µM and the TGI [12] was 38 µM. It also gave a GI50 [13] of 17.7 µM, a TGI [13] of 32.3 µM and a GI50 [14] of 15.1 µM. For the same compound, the TGI [14] was 31.7 µM, the GI50 [15] was 14.8 µM and the TGI [15] was 37.7 µM. For the same compound, the GI50 [17] was 22.3 µM, the TGI [17] was 60 µM and the GI50 [18] was 17.3 µM. It also gave a TGI [18] of 33.1 µM, a GI50 [19] of 30.8 µM and a TGI [19] of over 100 µM. The GI50 [20] was 14.1 µM, the TGI [20] was 28.2 µM and the GI50 [21] was 22.7 µM. For the same compound, the TGI [21] was 51.3 µM, the GI50 [22] was 18.8 µM and the TGI [22] was 34 µM. The GI50 [25] was 17.1 µM, the TGI [25] was 30.8 µM and the GI50 [26] was 18.8 µM. The TGI [26] was 36 µM, the GI50 [27] was 18.5 µM and the TGI [27] was 34.4 µM. The GI50 [28] was 19 µM, the TGI [28] was 34.3 µM and the GI50 [29] was 22.7 µM. For the same compound, the TGI [29] was 57.3 µM, the GI50 [31] was 16.9 µM and the TGI [31] was 33.1 µM. It also gave a GI50 [32] of 19 µM, a TGI [32] of 37.9 µM and a GI50 [33] of 20.8 µM. It also gave a TGI [33] of 41.2 µM, a GI50 [55] of 15.7 µM and a TGI [55] of 29.1 µM. For the same compound, the GI50 [34] was 20.7 µM, the TGI [34] was 49.9 µM and the GI50 [35] was 6.72 µM. It also gave a TGI [35] of over 100 µM, a GI50 [56] of 2700 nM and a TGI [56] of 17.1 µM. It also gave a GI50 [36] of 16.4 µM, a TGI [36] of 31.2 µM and a GI50 [37] of 17.4 µM. For the same compound, the TGI [37] was 34.4 µM, the GI50 [57] was 13 µM and the TGI [57] was 25.6 µM. For the same compound, the GI50 [39] was 11.4 µM, the TGI [39] was 24 µM and the GI50 [40] was 20 µM. The TGI [40] was 44.4 µM, the GI50 [41] was 17.5 µM and the TGI [41] was over 100 µM. It also gave a GI50 [42] of 38 µM, a TGI [42] of over 100 µM and a GI50 [43] of 14.5 µM. For the same compound, the TGI [43] was 34.3 µM, the GI50 [44] was 16.7 µM and the TGI [44] was 34.7 µM. The GI50 [45] was 19 µM, the TGI [45] was 83.8 µM and the GI50 [46] was 16.6 µM. It also gave a TGI [46] of 36.5 µM, a GI50 [47] of 15.1 µM and a TGI [47] of 32.9 µM. It also gave a GI50 [48] of 17.3 µM, a TGI [48] of 33.8 µM and a GI50 [49] of 23.2 µM. It also gave a TGI [49] of 58.4 µM, a GI50 [50] of 38.3 µM and a TGI [50] of over 100 µM. For the same compound, the GI50 [51] was 17.6 µM, the TGI [51] was 36.9 µM and the GI50 [52] was 11.9 µM. For the same compound, the TGI [52] was 26.9 µM, the GI50 [53] was 14.8 µM and the TGI [53] was 29.6 µM.
